The record followed here is ChEMBL document CHEMBL1201862, “PubChem BioAssay data set” (2004).

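Interpolation was linear, between the two tested concentrations surrounding the appropriate level; five concentrations were tested over 48 hours in 96-well plates. Here, GI50 denotes the concentration required for 50% inhibition of growth.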 Calls of active or inactive are those of the source. Cut-off read from the data, not from the text of the source: active = GI50 up to about 1.1 µM and inactive = higher.

Test systems include SF-539; HOP-62; NCI-H23; RPMI-8226; KM-20L2; SF-268; A549; SNB-75; NCI-H460; IGROV-1; SK-OV-3; HCT-15; A498; HCC 2998; OVCAR-4; OVCAR-8; HOP-92; CCRF-CEM.
Common to all, as to experiment: NCI anticancer screen, dose series, 48 h

For `CN(C)/C(N)=N\C#N`, the GI50 is > 100 µM (inactive) in the experiment with SF-539; > 100 µM (inactive) in the experiment on HOP-62; > 100 µM (inactive) in the experiment on NCI-H23; 64.7 µM (inactive) in the experiment with RPMI-8226; > 100 µM (inactive) in the experiment on KM-20L2; > 100 µM (inactive) in the experiment on SF-268. Moreover, the GI50 in the experiment with A549 is > 100 µM (inactive); in the experiment on SNB-75, > 100 µM (inactive); with NCI-H460, > 100 µM (inactive); in the experiment on IGROV-1 it was > 100 µM (inactive); in the experiment with SK-OV-3, > 100 µM (inactive); in the experiment on HCT-15 it was 18.9 µM. Moreover, the GI50 in the experiment on A498, in the experiment with HCC 2998, in the experiment with OVCAR-4, with OVCAR-8 and in the experiment with HOP-92 was > 100 µM (inactive) each time.
Consider `Cc1cc2c3c(coc3c1-c1c(C)cc3c4c(coc14)C(=O)C(O)=C3C(C)C)C(=O)C(O)=C2C(C)C`, for which the GI50 was 3.44 µM (inactive) in the experiment on SF-539; 11.5 µM (inactive) in the experiment with HOP-62; 3.53 µM (inactive) in the experiment with NCI-H23; 4.68 µM (inactive) with RPMI-8226; 6.04 µM (inactive) in the experiment with KM-20L2; 5.08 µM (inactive) in the experiment with SF-268. Besides, the GI50 is 4.05 µM (inactive) in the experiment on A549; 10.9 µM (inactive) in the experiment on SNB-75; 4.37 µM (inactive) with NCI-H460; 3.99 µM (inactive) in the experiment on IGROV-1; 19.2 µM (inactive) in the experiment on SK-OV-3; 3.94 µM in the experiment with HCT-15. Also, the GI50 was 12.2 µM (inactive) in the experiment with A498; 3.68 µM (inactive) with HCC 2998; 3.58 µM (inactive) in the experiment on CCRF-CEM; 6.79 µM (inactive) in the experiment with OVCAR-4; 4.72 µM (inactive) with OVCAR-8; 2.62 µM (inactive) in the experiment on HOP-92.
For the molecule `CC1=C(C(=O)Nc2cc(F)c(F)cc2F)C(c2cccc([N+](=O)[O-])c2)C(C(=O)Nc2ccccc2C(F)(F)F)=C(C)N1` (stereo not given), the GI50 was 20.7 µM (inactive) in the experiment with SF-539; 22.4 µM (inactive) in the experiment with HOP-62; 16.6 µM (inactive) in the experiment with NCI-H23; 13 µM (inactive) in the experiment on RPMI-8226; 23.8 µM (inactive) in the experiment on KM-20L2; 18.7 µM (inactive) with SF-268. Also, the GI50 is 26.8 µM (inactive) with A549; 12.6 µM (inactive) with SNB-75; 18.5 µM (inactive) in the experiment with NCI-H460; 23.5 µM (inactive) in the experiment with IGROV-1; 23.2 µM (inactive) in the experiment on SK-OV-3; 11.2 µM (inactive) in the experiment with A498. Moreover, the GI50 in the experiment with HCC 2998 was 20 µM (inactive); with CCRF-CEM it was 17.5 µM (inactive); in the experiment with OVCAR-4, 18.1 µM (inactive); in the experiment with OVCAR-8, 27 µM (inactive); in the experiment on HOP-92, 10.9 µM (inactive).
In the case of `CCOP1(=O)C=CC(Cl)=C(C)C1` (stereo not given), the GI50 was 17.8 µM (inactive) with SF-539; 27.2 µM (inactive) with HOP-62; 13 µM (inactive) in the experiment with NCI-H23; 6.82 µM (inactive) in the experiment on RPMI-8226; 16.9 µM (inactive) with KM-20L2; 22.1 µM (inactive) in the experiment on SF-268. Besides, the GI50 in the experiment with A549 was 31.1 µM (inactive); with SNB-75, 4.67 µM (inactive); in the experiment with NCI-H460, 27.4 µM (inactive); in the experiment on IGROV-1, 23.4 µM (inactive); in the experiment with SK-OV-3, 48 µM (inactive); in the experiment on HCT-15, 13.7 µM. The GI50 with A498 is 29.2 µM (inactive); with HCC 2998, 15.9 µM (inactive); in the experiment with CCRF-CEM, 3.13 µM (inactive); with OVCAR-4, 16.4 µM (inactive); in the experiment with OVCAR-8 it was 19.6 µM (inactive); with HOP-92, 16.9 µM (inactive).
